Results from US7396837B2, “Antitumoral analogs of lamellarins” (Pharma Mar, S.A.U., priority 2002, dated 2008).

Experiments:
Format in all cases: cell-based
A-549 = experiment: SRB colorimetric cell growth inhibition assay, A-549; conditions: Homo sapiens, A549, A-549; for GI50: GI=growth inhibition, read-out: GI50 A-549; for CC50: cell killing (cytotoxic effect), read-out: LC50 A-549; for IC (TGI): total growth inhibition (cytostatic effect), read-out: TGI A-549
How it was run: (§1)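 Growth inhibition (GI), cytostatic total growth inhibition (TGI) and cytotoxic cell-kill (LC) parameters were calculated from SRB-stained cultures held under constant compound exposure, triplicates averaged.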

IGROV = experiment: SRB colorimetric cell growth inhibition assay, IGROV; conditions: Homo sapiens, IGROV; for GI50: GI=growth inhibition, read-out: GI50 IGROV; for CC50: cell killing (cytotoxic effect), read-out: LC50 IGROV; for IC (TGI): total growth inhibition (cytostatic effect), read-out: TGI IGROV
How it was run: as §1

LoVo-Dox = experiment: SRB colorimetric cell growth inhibition assay, LoVo-Dox (MDR); conditions: Homo sapiens, LOVO-DOX; for GI50: GI=growth inhibition, read-out: GI50 LOVO-DOX; for CC50: cell killing (cytotoxic effect), read-out: LC50 LOVO-DOX; for IC (TGI): total growth inhibition (cytostatic effect), read-out: TGI LOVO-DOX
How it was run: as §1

HeLa = experiment: SRB colorimetric cell growth inhibition assay, HeLa; conditions: Homo sapiens, HeLa; for GI50: GI=growth inhibition, read-out: GI50 HELA; for CC50: cell killing (cytotoxic effect), read-out: LC50 HELA; for IC (TGI): total growth inhibition (cytostatic effect), read-out: TGI HELA
How it was run: as §1

LNCaP = experiment: SRB colorimetric cell growth inhibition assay, LNCaP; conditions: Homo sapiens, LNCaP, LN-caP; for GI50: GI=growth inhibition, read-out: GI50 LN-caP; for CC50: cell killing (cytotoxic effect), read-out: LC50 LN-caP; for IC (TGI): total growth inhibition (cytostatic effect), read-out: TGI LN-caP
Description: (§2) The finality of these assays is to interrupt the growth of an “in vitro” tumor cell culture by means a continued exhibition of the cells to the sample to be testing.
(§3) A colorimetric type of assay, using sulforhodamine B (SRB) reaction has been adapted for a quantitative measurement of cell growth and viability (following the technique described by P. A. Skehan, et al., J. Natl. Cancer Inst. 1990, 82, 1107-1112).
(§4) This form of assay employs 96 well cell culture microplates of 9 mm diameter (T. Mosmann et al., J. of Immunological Methods 1983, 65, 55-63; G. T. Faircloth et al., J. of Tissue and Culture Methods 1988, 11, 201-205).
(§5) Most of the cell lines are obtained from American Type Culture Collection (ATCC) derived from different human cancer types.
(§6) The values for mean +/− SD of data from triplicate wells are calculated. Some parameters for cellular responses can be calculated: GI=growth inhibition, TGI=total growth inhibition (cytostatic effect) and LC=cell killing (cytotoxic effect).

HT-29 = experiment: SRB colorimetric cell growth inhibition assay, HT-29; conditions: Homo sapiens, HT-29, HT-29; for GI50: GI=growth inhibition, read-out: GI50 HT-29; for CC50: cell killing (cytotoxic effect), read-out: LC50 HT-29; for IC (TGI): total growth inhibition (cytostatic effect), read-out: TGI HT-29
How it was run: as §1

LoVo = experiment: SRB colorimetric cell growth inhibition assay, LoVo; conditions: Homo sapiens, LoVo; for GI50: GI=growth inhibition, read-out: GI50 LOVO; for CC50: cell killing (cytotoxic effect), read-out: LC50 LOVO; for IC (TGI): total growth inhibition (cytostatic effect), read-out: TGI LOVO
How it was run: as §1

K-562 = experiment: SRB colorimetric cell growth inhibition assay, K-562; conditions: Homo sapiens, K562, K-562; for GI50: GI=growth inhibition, read-out: GI50 K-562; for CC50: cell killing (cytotoxic effect), read-out: LC50 K-562; for IC (TGI): total growth inhibition (cytostatic effect), read-out: TGI K-562
Description: as §2, §3, §4, §5, §6

PANC-1 = experiment: SRB colorimetric cell growth inhibition assay, PANC-1; conditions: Homo sapiens, PANC-1, PANC-1; for GI50: GI=growth inhibition, read-out: GI50 PANC-1; for CC50: cell killing (cytotoxic effect), read-out: LC50 PANC-1; for IC (TGI): total growth inhibition (cytostatic effect), read-out: TGI PANC-1
How it was run: as §1

SK-BR-3 = experiment: SRB colorimetric cell growth inhibition assay, SK-BR-3; conditions: Homo sapiens, SK-BR-3, SK-BR-3
How it was run: as §1

DU-145 = experiment: SRB colorimetric cell growth inhibition assay, DU-145; conditions: Homo sapiens, DU-145, DU-145; for GI50: GI=growth inhibition, read-out: GI50 DU-145; for CC50: cell killing (cytotoxic effect), read-out: LC50 DU-145; for IC (TGI): total growth inhibition (cytostatic effect), read-out: TGI DU-145
How it was run: as §1

IGROV-ET = experiment: SRB colorimetric cell growth inhibition assay, IGROV-ET (ET-743 resistant); conditions: Homo sapiens, IGROV-ET; for GI50: GI=growth inhibition, read-out: GI50 IGROV-ET; for CC50: cell killing (cytotoxic effect), read-out: LC50 IGROV-ET; for IC (TGI): total growth inhibition (cytostatic effect), read-out: TGI IGROV-ET
How it was run: as §1

HeLa-APL = experiment: SRB colorimetric cell growth inhibition assay, HeLa-APL (aplidine resistant); conditions: Homo sapiens, HELA-APL; for GI50: GI=growth inhibition, read-out: GI50 HELA-APL; for CC50: cell killing (cytotoxic effect), read-out: LC50 HELA-APL; for IC (TGI): total growth inhibition (cytostatic effect), read-out: TGI HELA-APL
How it was run: as §1

SK-MEL-28 = experiment: SRB colorimetric cell growth inhibition assay, SK-MEL-28; conditions: Homo sapiens, SK-MEL-28, MEL-28
How it was run: as §1

SMILES: COc1cc(-c2c3n(c4c(=O)[nH]c5cc(O)c(OC)cc5c24)CCc2cc(O)c(OC)cc2-3)ccc1O [Compound 4]
- GI50 (A-549): 0.543 µM
- CC50 (A-549): 10 µM
- IC (TGI) (A-549): 1.21 µM
- GI50 (IGROV): 0.402 µM
- CC50 (IGROV): 11.3 µM
- IC (TGI) (IGROV): 2 µM
- GI50 (LoVo-Dox): 2 µM
- CC50 (LoVo-Dox): 17.8 µM
- IC (TGI) (LoVo-Dox): 5.95 µM
- GI50 (HeLa): 0.338 µM
- CC50 (HeLa): 1.39 µM
- IC (TGI) (HeLa): 0.685 µM
- GI50 (LNCaP): 0.332 µM
- CC50 (LNCaP): 1.85 µM
- IC (TGI) (LNCaP): 0.785 µM
- GI50 (HT-29): 2.5 µM
- CC50 (HT-29): 14.6 µM
- IC (TGI) (HT-29): 6.03 µM
- GI50 (LoVo): 0.468 µM
- CC50 (LoVo): 4.36 µM
- IC (TGI) (LoVo): 1.08 µM
- GI50 (K-562): 0.396 µM
- CC50 (K-562): 4.44 µM
- IC (TGI) (K-562): 0.937 µM
- GI50 (PANC-1): 0.48 µM
- CC50 (PANC-1): 5.99 µM
- IC (TGI) (PANC-1): 1.34 µM
- GI50 (SK-BR-3; GI=growth inhibition, read-out: GI50 SK-BR-3): 0.338 µM
- CC50 (SK-BR-3; cell killing (cytotoxic effect), read-out: LC50 SK-BR-3): 1.47 µM
- IC (TGI) (SK-BR-3; total growth inhibition (cytostatic effect), read-out: TGI SK-BR-3): 0.703 µM
- GI50 (DU-145): 0.218 µM
- CC50 (DU-145): 2.14 µM
- IC (TGI) (DU-145): 0.667 µM
- GI50 (IGROV-ET): 0.599 µM
- CC50 (IGROV-ET): 13.1 µM
- IC (TGI) (IGROV-ET): 1.64 µM
- GI50 (HeLa-APL): 0.238 µM
- CC50 (HeLa-APL): 1.95 µM
- IC (TGI) (HeLa-APL): 0.681 µM

SMILES: COc1cc2c(cc1O)oc(=O)c1c2c(-c2ccc(OC)c(OC)c2)c2c3cc(OC)c(O)cc3ccn21 [Compound 233]
- GI50 (A-549): 0.312 µM
- CC50 (A-549): 19.5 µM
- IC (TGI) (A-549): 2.06 µM
- GI50 (IGROV): 0.0499 µM
- CC50 (IGROV): 19.5 µM
- IC (TGI) (IGROV): 0.142 µM
- GI50 (LoVo-Dox): 1.05 µM
- CC50 (LoVo-Dox): 19.5 µM
- IC (TGI) (LoVo-Dox): 15.4 µM
- GI50 (HeLa): 0.191 µM
- CC50 (HeLa): 16 µM
- IC (TGI) (HeLa): 3.82 µM
- GI50 (LNCaP): 0.126 µM
- CC50 (LNCaP): 3.72 µM
- IC (TGI) (LNCaP): 0.557 µM
- GI50 (HT-29): 19.5 µM
- CC50 (HT-29): 19.5 µM
- IC (TGI) (HT-29): 19.5 µM
- GI50 (LoVo): 0.545 µM
- CC50 (LoVo): 19.5 µM
- IC (TGI) (LoVo): 1.31 µM
- GI50 (SK-MEL-28; GI=growth inhibition, read-out: GI50 MEL-28): 0.169 µM
- CC50 (SK-MEL-28; cell killing (cytotoxic effect), read-out: LC50 MEL-28): 19.5 µM
- IC (TGI) (SK-MEL-28; total growth inhibition (cytostatic effect), read-out: TGI MEL-28): 4.75 µM
- GI50 (K-562): 0.0958 µM
- CC50 (K-562): 8.61 µM
- IC (TGI) (K-562): 1.09 µM
- GI50 (PANC-1): 0.341 µM
- CC50 (PANC-1): 19.5 µM
- IC (TGI) (PANC-1): 19.5 µM
- GI50 (DU-145): 0.0783 µM
- CC50 (DU-145): 19.5 µM
- IC (TGI) (DU-145): 0.18 µM
- GI50 (IGROV-ET): 0.107 µM
- CC50 (IGROV-ET): 19.5 µM
- IC (TGI) (IGROV-ET): 0.721 µM
- GI50 (HeLa-APL): 0.417 µM
- CC50 (HeLa-APL): 14.3 µM
- IC (TGI) (HeLa-APL): 3.15 µM
